Measured values published in patent EP4361137A1, “PRUNE1 INHIBITORS AND THERAPEUTIC USE THEREOF” (CEINGE Biotecnologie Avanzate Franco Salvatore s.c. a r.l., priority 2022, dated 2024).

Tests used:
[1] = system: MATH1-Prune1/ TP53-/-; assay: Orthotopic implantation of MATH1-Prune1/TP53-/- cells in immunocompetent syngeneic mice, survival analysis; format: in vivo, FVB WT mice
Description: MATH1-Prune1/ TP53-/- were implanted into the right cerebellar hemisphere of female (n.24) immunocompetent syngeneic mice model (5 weeks old, strain: FVB WT). to establish intracerebellar MATH1-Prune1/ TP53-/- models, mice were anaesthetised with Ketamine/ Xylazine (87.5 mg/kg, 12.5 mg/kg, respectively). The mice were then placed in a stereotactic frame by hooking their incisors onto the frame hold. […] The mice were monitored daily for development of potential neurological deficits. For LEO-AA7.5(S)T in-vivo treatment, starting after 10 days from tumour implantation (i.e., once the tumours were established) the mice (grouped according to body weight values) were injected intraperitoneally with LEO-AA7.5(S)T at 6 mg/kg/day, or with water as the vehicle for the control group. mouse body weights were measured at the indicated time points. Mouse survival was closely monitored during the entire experimental period.

[2] = system: murine PRUNE1; assay: qPCR of PRUNE1 mRNA in MATH1-Prune1/TP53-/- cells; format: cell-based; conditions: 10 µM, 24 hours, relative to vehicle
Description: (§1) RNA samples were extracted using TRIzol RNA Isolation Reagent (15596026, Invitrogen), according to the manufacturer instructions. Reverse transcription was performed with 5× All-In-One RT MasterMix (g592; ABM), according to the manufacturer instructions. The reverse transcription products (cDNA) were amplified by qRT-PCR using an RT-PCR system (7900; Applied Biosystems, Foster City, CA, USA). The cDNA preparation was through the cycling method, by incubating the complete reaction mix as follows: cDNA reactions: (37 °C for 10 min and 60 °C for 15 min); Heat-inactivation: 95 °C for 3 min; Hold stage: 4 °C. The targets were detected with the SYBR green approach, using BrightGreen BlasTaq 2× PCR MasterMix (G895; ABM). Human ACTB was used as the housekeeping gene to normalize the quantification cycle (Cq) values of the other genes. These runs were performed on a PCR machine (Quantstudio5, Lifetechnologies) with the following thermal protocol: Hold stage: 50 °C for 2 min; Denaturation Step: 95 °C for 10 min; Denaturation and annealing (×45 cycles): 95 °C for 15 s and 60 °C for 60 s; Melt curve stage: 95 °C for 15 s, 60 °C for 1 min, and 95 °C for 15 s. Relative expression of the target genes was determined using the 2^-ΔΔCq method, as the fold increase compared with the controls. The data are presented as means ±SD of the 2^-ΔΔCq values (normalized to human ACTB) of three replicates.

[3] = system: human and murine Prune1; assay: qPCR of PRUNE1 mRNA in MMTV-Prune1/Wnt1 cells; format: cell-based; parameters: dose or concentration left out as unconfirmed
Description: (§2) D425.MED and MMTV-Prune1/Wnt1 cells were plated and treated with increasing concentrations of LEO-AA7.5(S)T for 24 hours. Water-treated cells were used as negative control for the experiments.
as §1, with “These runs were performed on a PCR machine (Quantstudio5, Lifetechnologies) with the following thermal protocol: Hold stage: 50 °C for 2 min; Denaturation Step: 95 °C for 10 min; Denaturation and annealing (×45 cycles): 95 °C for 15 s and 60 °C for 60 s; Melt curve stage: 95 °C for 15 s, 60 °C for 1 min, and 95 °C for 15 s.” left out, “The data are presented as means ±SD of the 2^-ΔΔCq values (normalized to human ACTB) of three replicates.” left out

[4] = system: human and murine Prune1; assay: Immunoblotting of MATH1-Prune1/TP53-/- cells; format: cell-based; conditions: 10 µM, 24 hours
Description: (§3) Cells for immunoblotting analysis were washed in cold PBS and lysed in cell lysis buffer [20 mM sodium phosphate (pH 7.4), 150 mM NaCl, 10% (v/v) glycerol, 1% (w/v) sodium deoxycholate, 1% (v/v) Triton X-100] supplemented with protease inhibitors (Roche). The resulting cell lysates were cleared by centrifugation at 16,200g for 10 min at room temperature, and the supernatants were re- moved and assayed for protein concentrations with the Protein Assay Dye Reagent (Bio-Rad). The cell lysates (30 µg) were resolved by SDS-polyacrylamide gel electrophoresis (SDS-PAGE) gels of different percentages, which depended on the molecular weights of the proteins of interest. The proteins were then electrophoretically transferred to polyvinylidene difluoride (PVDF) membranes (Millipore). After 1 hour in blocking solution with 5% (w/v) dry milk fat in PBS or 5% (w/v) BSA (Sigma-Aldrich) in tris-buffered saline [both of which contained 0.02% (v/v) Tween 20] (TBS-Tween), the PVDF mem- branes were incubated with the required primary antibody overnight at 4°C: anti-PRUNE1 (1:250; Ferrucci et al., 2018), or anti- β-actin (1:10,000; A5441, Sigma-Aldrich). […] The peak areas of the bands were measured on the densitometry plots, and the relative proportions (percentages) were calculated. […]

[5] = target: T1, Prune1 (Homo sapiens, UniProt Q86TP1); assay: Immunoblotting and densitometry of Prune1 in D425-MED cells; format: cell-based
T1 construct: endogenous in cells; host or cells: D425-MED cells
T1 sequence (Q86TP1 1-453): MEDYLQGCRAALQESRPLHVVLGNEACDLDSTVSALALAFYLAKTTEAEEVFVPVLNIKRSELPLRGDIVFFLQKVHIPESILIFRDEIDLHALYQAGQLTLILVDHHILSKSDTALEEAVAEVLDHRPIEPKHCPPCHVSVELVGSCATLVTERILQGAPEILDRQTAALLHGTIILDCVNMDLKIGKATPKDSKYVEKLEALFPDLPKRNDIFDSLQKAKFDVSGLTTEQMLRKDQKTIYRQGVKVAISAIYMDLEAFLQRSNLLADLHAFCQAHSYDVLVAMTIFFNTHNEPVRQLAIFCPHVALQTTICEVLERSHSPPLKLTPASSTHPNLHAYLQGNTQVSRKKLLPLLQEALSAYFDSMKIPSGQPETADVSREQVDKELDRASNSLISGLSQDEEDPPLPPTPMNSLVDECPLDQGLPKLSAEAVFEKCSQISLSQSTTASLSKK
Description: as §2
as §3, with “20]” for “20] (TBS-Tween), the PVDF mem- branes were incubated with the required primary antibody overnight at 4°C: anti-PRUNE1 (1:250; Ferrucci et al., 2018), or anti- β-actin (1:10,000; A5441, Sigma-Aldrich).”

## COc1ccc(CNc2ncnc(N3CCC[C@H](CO)C3)n2)cc1.Cl [LEO-AA7.5(S)T, (S)-(1-(4-((4-methoxybenzyl)amino)-1,3,5-triazin-2-yl)piperidin-3-yl)methanol HCl salt]
[1]; 6 mg/kg/day intraperitoneally
  toxic effects (body weight): no toxic effects
[1]; 6 mg/kg/day intraperitoneally from day 10 after implantation
  overall survival: improved overall survival
[2]
  murine endogenous Prune1 mRNA: 0.4 fold
[3]
  degradation of human and murine Prune transcript: enhance the degradation
[4]
  human and murine Prune1 levels (immunoblotting): reduced human and murine Prune1 levels
  nuclear phosphorylated SMAD2 and OTX2 (immunoblotting): inhibition
[5]; 10 µM vs 100 µM AA7.1
  dose effective on Prune1 target inhibition/degradation in vitro, lower than AA7.1: 10 fold
[5]; D425-Med cells, 10 µM, 24 hours, densitometry relative to vehicle
  Prune1 protein levels: 0.6 fold
